From PMC8450341 (Frontiers in Physiology, 2021)

Assays:
[1] = system: rat models of hypoxia-induced pulmonary hypertension; conditions: cited from earlier work
[2] = Serum pharmacokinetics after single oral dose in normoxic calves; conditions: calves, single oral dose
Description: (§1) Pharmacokinetic parameters were calculated by a non-compartmental model using Phoenix WinNonlin v8.1 ([Wagner, 1993]).

[3] = in humans; ref Iwamoto et al., 2013; cited from earlier work
bovine PH-fibs = system: bovine PH-fibs; design: method as in Li et al., 2011; conditions: ref Li et al., 2011; cited from earlier work
in vivo = conditions: male, Holstein, bovine, serum, po, 235 mg
Description: as §1

[4] = ref Cho et al., 2010, Cavasin et al., 2012

SMILES | RV function [1, 4] | RV hypertrophic and pro-fibrotic remodeling [1, 4] | ratio of metabolite AUC to vorinostat AUC [2] [fold] | metabolite AUC relative to that of vorinostat [3] | further results
Nc1ccccc1NC(=O)c1ccc(CNc2nccc(-c3cccnc3)n2)cc1 [MCD-0103] | preserved | attenuated |  |  | 
O=C(CCCCCCC(=O)Nc1ccccc1)NO[C@@H]1O[C@H](C(=O)O)[C@@H](O)[C@H](O)[C@H]1O [Vorinostat glucoronide] |  |  | ~3 | 3–4 times | 
CCCC(CCC)C(=O)O [valproic acid] |  |  |  |  | RV hypertrophy [1, 4]: attenuated; hypoxia-induced PH in rats ([1]; ref Zhao et al. (2012)): inhibited
CCC(=O)CCCCC[C@@H]1NC(=O)[C@H]2CCCCN2C(=O)[C@H]([C@@H](C)CC)NC(=O)[C@H](Cc2cn(OC)c3ccccc23)NC1=O [apicidin] |  |  |  |  | activated fibroblast phenotype (bovine PH-fibs): reversed
O=C(O)CCC(=O)Nc1ccccc1 [Succininanilic Acid, succinanilic acid] |  |  | ~20 | 10–13 times | Tmax (in vivo): 6 h
Nc1ccccc1NC(=O)c1ccc(CNC(=O)OCc2cccnc2)cc1 [MS-275] | preserved | attenuated |  |  | 
